Test results as given in the kinase profiling compilation of Christmann-Franck et al. (2016).

Key:
Experiment in all cases: radiometric filter-binding kinase assay, Kinase HotSpot
Settings in all cases: compound 0.5 µM; ATP 10 µM
ACVR1 (human) = ACVR1 (human) (UniProt Q04771)
CHUK (human) = CHUK (human) (UniProt O15111)
PDGFRA (human) = PDGFRA (human) (UniProt P16234)
MINK1 (human) = MINK1 (human) (UniProt Q8N4C8)
FER (human) = FER (human) (UniProt P16591)
[1] = biological target: TYK2 JH1 catalytic (human) (UniProt P29597)
ERBB4 (human) = ERBB4 (human) (UniProt Q15303)
SLK (human) = SLK (human) (UniProt Q9H2G2)
MAP3K11 (human) = MAP3K11 (human) (UniProt Q16584)
RPS6KA3 KD1 KD2 (human) = RPS6KA3 KD1 KD2 (human) (UniProt P51812)
CSNK1G2 (human) = CSNK1G2 (human) (UniProt P78368)
MAPK13 (human) = MAPK13 (human) (UniProt O15264)
ACVR1B (human) = ACVR1B (human) (UniProt P36896)
PKN2 (human) = PKN2 (human) (UniProt Q16513)
SIK2 (human) = SIK2 (human) (UniProt Q9H0K1)
GRK7 (human) = GRK7 (human) (UniProt Q8WTQ7)
PAK3 (human) = PAK3 (human) (UniProt O75914)
PDGFRB (human) = PDGFRB (human) (UniProt P09619)
NEK1 (human) = NEK1 (human) (UniProt Q96PY6)
MAP3K3 (human) = MAP3K3 (human) (UniProt Q99759)
CLK1 (human) = CLK1 (human) (UniProt P49759)
Sequence of CLK1 (human) (P49759 whole entry, looked up): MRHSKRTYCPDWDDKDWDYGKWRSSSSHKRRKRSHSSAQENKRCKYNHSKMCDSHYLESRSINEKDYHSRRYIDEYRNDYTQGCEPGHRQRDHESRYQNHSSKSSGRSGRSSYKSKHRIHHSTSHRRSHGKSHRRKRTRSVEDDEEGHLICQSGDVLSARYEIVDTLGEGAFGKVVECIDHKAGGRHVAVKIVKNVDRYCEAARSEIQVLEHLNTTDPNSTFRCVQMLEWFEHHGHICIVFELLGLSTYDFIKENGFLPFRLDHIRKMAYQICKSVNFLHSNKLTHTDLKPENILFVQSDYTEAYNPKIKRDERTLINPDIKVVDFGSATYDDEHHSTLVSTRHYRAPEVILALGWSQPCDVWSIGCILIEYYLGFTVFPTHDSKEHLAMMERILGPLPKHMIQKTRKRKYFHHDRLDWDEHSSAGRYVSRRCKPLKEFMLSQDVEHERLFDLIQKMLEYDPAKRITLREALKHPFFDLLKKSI

MAP2K1 (human) = MAP2K1 (human) (UniProt Q02750)
Sequence of MAP2K1 (human) (Q02750 whole entry, looked up): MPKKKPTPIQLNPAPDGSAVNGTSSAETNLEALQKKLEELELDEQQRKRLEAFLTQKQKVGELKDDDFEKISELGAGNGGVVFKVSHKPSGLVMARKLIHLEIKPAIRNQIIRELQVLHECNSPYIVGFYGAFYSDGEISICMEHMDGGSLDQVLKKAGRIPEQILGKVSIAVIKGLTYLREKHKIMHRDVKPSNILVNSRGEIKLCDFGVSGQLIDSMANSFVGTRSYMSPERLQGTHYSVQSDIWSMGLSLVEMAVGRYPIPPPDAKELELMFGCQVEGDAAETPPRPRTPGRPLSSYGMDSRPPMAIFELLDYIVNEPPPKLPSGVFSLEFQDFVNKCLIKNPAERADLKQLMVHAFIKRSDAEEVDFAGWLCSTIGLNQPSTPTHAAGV

CLK3 (human) = CLK3 (human) (UniProt P49761)
TGFBR2 (human) = TGFBR2 (human) (UniProt P37173)
Sequence of TGFBR2 (human) (P37173 whole entry, looked up): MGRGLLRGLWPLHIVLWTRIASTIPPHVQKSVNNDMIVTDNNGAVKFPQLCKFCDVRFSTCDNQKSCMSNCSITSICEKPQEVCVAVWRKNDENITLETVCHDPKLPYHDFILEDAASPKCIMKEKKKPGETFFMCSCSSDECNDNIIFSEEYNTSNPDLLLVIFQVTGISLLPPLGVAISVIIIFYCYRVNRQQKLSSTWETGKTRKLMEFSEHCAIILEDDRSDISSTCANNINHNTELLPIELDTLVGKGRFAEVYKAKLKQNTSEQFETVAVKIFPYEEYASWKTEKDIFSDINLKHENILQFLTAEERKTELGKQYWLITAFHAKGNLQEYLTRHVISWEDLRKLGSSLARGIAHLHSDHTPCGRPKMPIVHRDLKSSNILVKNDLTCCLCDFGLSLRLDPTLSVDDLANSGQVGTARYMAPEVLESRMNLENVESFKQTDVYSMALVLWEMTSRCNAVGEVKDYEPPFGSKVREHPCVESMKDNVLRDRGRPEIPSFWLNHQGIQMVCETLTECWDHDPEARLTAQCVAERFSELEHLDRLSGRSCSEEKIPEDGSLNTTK

ALK (human) = ALK (human) (UniProt Q9UM73)
ROS1 (human) = ROS1 (human) (UniProt P08922)
RET (human) = RET (human) (UniProt P07949)
Sequence of RET (human) (P07949 whole entry, looked up): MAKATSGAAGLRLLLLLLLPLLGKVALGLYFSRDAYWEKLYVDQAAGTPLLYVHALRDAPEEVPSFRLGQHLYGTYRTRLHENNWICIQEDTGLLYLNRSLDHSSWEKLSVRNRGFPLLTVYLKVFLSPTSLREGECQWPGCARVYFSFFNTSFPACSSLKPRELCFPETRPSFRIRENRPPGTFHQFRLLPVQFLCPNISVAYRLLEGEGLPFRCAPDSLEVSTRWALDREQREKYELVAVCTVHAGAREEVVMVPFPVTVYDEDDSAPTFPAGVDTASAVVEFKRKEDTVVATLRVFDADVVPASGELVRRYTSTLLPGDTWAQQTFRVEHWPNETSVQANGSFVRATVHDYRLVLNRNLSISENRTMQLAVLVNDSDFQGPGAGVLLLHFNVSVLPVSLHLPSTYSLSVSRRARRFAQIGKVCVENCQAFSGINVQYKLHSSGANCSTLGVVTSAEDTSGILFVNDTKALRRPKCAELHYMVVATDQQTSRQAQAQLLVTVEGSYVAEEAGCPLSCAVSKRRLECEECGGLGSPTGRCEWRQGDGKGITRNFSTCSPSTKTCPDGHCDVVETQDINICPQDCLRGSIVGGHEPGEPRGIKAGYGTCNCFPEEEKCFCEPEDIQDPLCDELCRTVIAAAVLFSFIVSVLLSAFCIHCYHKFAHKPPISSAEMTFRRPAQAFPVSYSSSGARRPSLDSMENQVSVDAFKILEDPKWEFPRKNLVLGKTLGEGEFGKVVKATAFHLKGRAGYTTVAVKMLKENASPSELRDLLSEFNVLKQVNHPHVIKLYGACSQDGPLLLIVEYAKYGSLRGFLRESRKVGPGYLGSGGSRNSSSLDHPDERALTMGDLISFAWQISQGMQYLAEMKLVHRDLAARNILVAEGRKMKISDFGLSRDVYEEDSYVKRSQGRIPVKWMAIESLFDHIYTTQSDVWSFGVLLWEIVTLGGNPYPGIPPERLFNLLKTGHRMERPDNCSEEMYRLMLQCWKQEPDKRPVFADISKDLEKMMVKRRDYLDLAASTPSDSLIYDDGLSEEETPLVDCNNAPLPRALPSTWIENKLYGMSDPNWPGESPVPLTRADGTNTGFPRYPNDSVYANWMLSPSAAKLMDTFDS

CLK2 (human) = CLK2 (human) (UniProt P49760)
PRKCE (human) = PRKCE (human) (UniProt Q02156)
Sequence of PRKCE (human) (Q02156 whole entry, looked up): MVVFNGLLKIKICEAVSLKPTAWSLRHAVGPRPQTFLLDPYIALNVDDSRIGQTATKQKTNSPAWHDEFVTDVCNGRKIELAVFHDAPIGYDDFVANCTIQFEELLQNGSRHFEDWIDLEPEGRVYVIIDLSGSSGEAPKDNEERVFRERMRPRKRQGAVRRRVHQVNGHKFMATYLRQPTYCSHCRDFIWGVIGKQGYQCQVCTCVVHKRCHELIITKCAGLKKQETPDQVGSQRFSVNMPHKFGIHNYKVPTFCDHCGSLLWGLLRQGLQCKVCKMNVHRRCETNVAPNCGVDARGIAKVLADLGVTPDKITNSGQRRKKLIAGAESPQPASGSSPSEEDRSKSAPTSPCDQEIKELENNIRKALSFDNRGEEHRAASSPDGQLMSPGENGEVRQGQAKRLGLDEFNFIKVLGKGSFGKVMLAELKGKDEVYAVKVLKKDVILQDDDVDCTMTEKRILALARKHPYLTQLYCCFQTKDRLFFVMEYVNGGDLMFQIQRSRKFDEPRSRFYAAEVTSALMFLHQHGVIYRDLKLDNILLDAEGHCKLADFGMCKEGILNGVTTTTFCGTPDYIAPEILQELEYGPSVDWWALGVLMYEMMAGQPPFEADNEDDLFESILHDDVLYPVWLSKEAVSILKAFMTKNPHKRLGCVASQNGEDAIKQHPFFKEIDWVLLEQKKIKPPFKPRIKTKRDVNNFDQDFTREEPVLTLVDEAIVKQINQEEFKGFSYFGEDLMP

CDK3 CCNE1 (human) = CDK3 CCNE1 (human) (UniProt Q00526+P24864)
DYRK3 (human) = DYRK3 (human) (UniProt O43781)
[2] = biological target: JAK1 JH1 catalytic (human) (UniProt P23458)
EPHB3 (human) = EPHB3 (human) (UniProt P54753)
KIT (human) = KIT (human) (UniProt P10721)
TTK (human) = TTK (human) (UniProt P33981)
NTRK3 (human) = NTRK3 (human) (UniProt Q16288)
HIPK4 (human) = HIPK4 (human) (UniProt Q8NE63)
Sequence of HIPK4 (human) (Q8NE63 whole entry, looked up): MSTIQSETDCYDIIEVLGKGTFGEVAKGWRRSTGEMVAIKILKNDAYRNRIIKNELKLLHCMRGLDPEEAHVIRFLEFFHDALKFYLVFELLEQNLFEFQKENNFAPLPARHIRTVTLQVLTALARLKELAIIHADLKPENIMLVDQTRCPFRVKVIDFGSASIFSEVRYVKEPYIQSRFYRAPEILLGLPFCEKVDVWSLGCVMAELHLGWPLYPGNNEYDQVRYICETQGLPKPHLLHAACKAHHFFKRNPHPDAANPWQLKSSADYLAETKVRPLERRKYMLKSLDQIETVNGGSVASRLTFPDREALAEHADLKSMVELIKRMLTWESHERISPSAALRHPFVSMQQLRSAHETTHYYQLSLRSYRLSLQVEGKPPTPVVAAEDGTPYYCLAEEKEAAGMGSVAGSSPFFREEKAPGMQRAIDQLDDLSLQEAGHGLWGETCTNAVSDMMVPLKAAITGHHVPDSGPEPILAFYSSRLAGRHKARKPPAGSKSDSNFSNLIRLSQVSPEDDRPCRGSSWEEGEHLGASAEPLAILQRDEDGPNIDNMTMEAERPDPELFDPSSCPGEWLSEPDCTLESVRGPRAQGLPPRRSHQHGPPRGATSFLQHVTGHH

NLK (human) = NLK (human) (UniProt Q9UBE8)
ZAP70 (human) = ZAP70 (human) (UniProt P43403)
MAP4K2 (human) = MAP4K2 (human) (UniProt Q12851)
MARK1 (human) = MARK1 (human) (UniProt Q9P0L2)
MAP3K8 (human) = MAP3K8 (human) (UniProt P41279)

Sequence of PDGFRA (human) (P16234 whole entry, looked up): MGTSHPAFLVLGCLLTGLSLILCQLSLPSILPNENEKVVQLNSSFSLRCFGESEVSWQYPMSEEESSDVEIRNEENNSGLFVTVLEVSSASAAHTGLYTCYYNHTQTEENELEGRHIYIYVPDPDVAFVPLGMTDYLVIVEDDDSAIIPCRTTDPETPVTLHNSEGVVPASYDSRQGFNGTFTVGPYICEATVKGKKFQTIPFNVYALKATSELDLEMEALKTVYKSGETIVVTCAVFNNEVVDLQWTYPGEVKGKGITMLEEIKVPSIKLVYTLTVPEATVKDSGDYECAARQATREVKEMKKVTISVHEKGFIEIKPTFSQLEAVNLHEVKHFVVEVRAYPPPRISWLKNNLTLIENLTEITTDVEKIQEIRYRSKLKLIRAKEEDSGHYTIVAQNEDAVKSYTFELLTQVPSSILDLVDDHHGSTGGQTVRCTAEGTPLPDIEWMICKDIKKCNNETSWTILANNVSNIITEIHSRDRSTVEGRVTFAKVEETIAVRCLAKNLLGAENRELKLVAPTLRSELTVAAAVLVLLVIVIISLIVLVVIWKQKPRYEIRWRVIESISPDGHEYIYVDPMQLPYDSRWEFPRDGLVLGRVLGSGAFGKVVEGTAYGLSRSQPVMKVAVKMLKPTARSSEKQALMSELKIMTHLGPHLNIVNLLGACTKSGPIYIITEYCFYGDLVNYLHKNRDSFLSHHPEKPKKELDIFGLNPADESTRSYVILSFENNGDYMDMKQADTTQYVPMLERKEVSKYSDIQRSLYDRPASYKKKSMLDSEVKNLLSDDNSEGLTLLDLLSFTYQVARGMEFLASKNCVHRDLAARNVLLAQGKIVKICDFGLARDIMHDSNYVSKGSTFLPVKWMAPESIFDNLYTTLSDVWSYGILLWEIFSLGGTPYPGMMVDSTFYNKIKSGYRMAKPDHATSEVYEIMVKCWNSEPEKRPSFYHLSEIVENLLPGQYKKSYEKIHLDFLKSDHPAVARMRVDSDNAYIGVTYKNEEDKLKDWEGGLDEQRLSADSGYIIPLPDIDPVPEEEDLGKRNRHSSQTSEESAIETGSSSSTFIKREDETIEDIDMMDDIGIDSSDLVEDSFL

N#CCCc1ccc2c(c1)-c1[nH]c3ccc([N+](=O)[O-])cc3c1CC(=O)N2
residual activity (ACVR1 (human)): 58.8% | residual activity (CHUK (human)): 105% | residual activity (PDGFRA (human)): 87.4% | residual activity (MINK1 (human)): 29.9% | residual activity (FER (human)): 72.7% | residual activity [1]: 48.1% | residual activity (ERBB4 (human)): 91.8% | residual activity (SLK (human)): 87.2% | residual activity (MAP3K11 (human)): 18.4% | residual activity (RPS6KA3 KD1 KD2 (human)): 28.6% | residual activity (CSNK1G2 (human)): 84.8% | residual activity (MAPK13 (human)): 98.2% | residual activity (ACVR1B (human)): 110% | residual activity (PKN2 (human)): 77.9% | residual activity (SIK2 (human)): 44.2% | residual activity (GRK7 (human)): 97.7% | residual activity (PAK3 (human)): 97.1% | residual activity (PDGFRB (human)): 83.9% | residual activity (NEK1 (human)): 132% | residual activity (MAP3K3 (human)): 83.3% | residual activity (CLK1 (human)): 99.6% | residual activity (MAP2K1 (human)): 97.1% | residual activity (CLK3 (human)): 108% | residual activity (TGFBR2 (human)): 10.1% | residual activity (ALK (human)): 78.8% | residual activity (ROS1 (human)): 71% | residual activity (RET (human)): 80.8% | residual activity (CLK2 (human)): 104% | residual activity (PRKCE (human)): 95.4% | residual activity (CDK3 CCNE1 (human)): 39.7% | residual activity (DYRK3 (human)): 97.6% | residual activity [2]: 91.9% | residual activity (EPHB3 (human)): 102% | residual activity (KIT (human)): 76.6% | residual activity (TTK (human)): 71.7% | residual activity (NTRK3 (human)): 61.2% | residual activity (HIPK4 (human)): 113% | residual activity (NLK (human)): 89.7% | residual activity (ZAP70 (human)): 106% | residual activity (MAP4K2 (human)): 14% | residual activity (MARK1 (human)): 67.4% | residual activity (MAP3K8 (human)): 87.5%

O=C(c1ccccc1)c1ccc(N2CCOCC2)cc1O
residual activity (ACVR1 (human)): 107% | residual activity (CHUK (human)): 101% | residual activity (PDGFRA (human)): 91.9% | residual activity (MINK1 (human)): 91.1% | residual activity (FER (human)): 94.2% | residual activity [1]: 110% | residual activity (ERBB4 (human)): 102% | residual activity (SLK (human)): 106% | residual activity (MAP3K11 (human)): 93.2% | residual activity (RPS6KA3 KD1 KD2 (human)): 104% | residual activity (CSNK1G2 (human)): 96.1% | residual activity (MAPK13 (human)): 106% | residual activity (ACVR1B (human)): 104% | residual activity (PKN2 (human)): 96.8% | residual activity (SIK2 (human)): 100% | residual activity (GRK7 (human)): 99.6% | residual activity (PAK3 (human)): 99.4% | residual activity (PDGFRB (human)): 96.5% | residual activity (NEK1 (human)): 115% | residual activity (MAP3K3 (human)): 97.8% | residual activity (CLK1 (human)): 108% | residual activity (MAP2K1 (human)): 98.1% | residual activity (CLK3 (human)): 90.2% | residual activity (TGFBR2 (human)): 109% | residual activity (ALK (human)): 102% | residual activity (ROS1 (human)): 96% | residual activity (RET (human)): 97.8% | residual activity (CLK2 (human)): 106% | residual activity (PRKCE (human)): 92.3% | residual activity (CDK3 CCNE1 (human)): 105% | residual activity (DYRK3 (human)): 98.9% | residual activity [2]: 108% | residual activity (EPHB3 (human)): 92.2% | residual activity (KIT (human)): 96.2% | residual activity (TTK (human)): 104% | residual activity (NTRK3 (human)): 93.7% | residual activity (HIPK4 (human)): 99.5% | residual activity (NLK (human)): 97.3% | residual activity (ZAP70 (human)): 95.9% | residual activity (MAP4K2 (human)): 116% | residual activity (MARK1 (human)): 97.6% | residual activity (MAP3K8 (human)): 99.6%
